Source: ChEMBL document CHEMBL1201862, “PubChem BioAssay data set” (2004)
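Each compound was tested at five concentrations against cells in 96-well plates for 48 hours. GI50: concentration for 50% inhibition of growth.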 Calls of active or inactive are those of the source. Cut-off read from the data, not from the text of the source: active = GI50 up to about 1.1 µM and inactive = higher.

Tests used:
Assay in all cases: DTP human tumour cell line panel, 48 h
CAKI-1 = test system: CAKI-1
CCRF-CEM = test system: CCRF-CEM
HCC 2998 = test system: HCC 2998
HCT-15 = test system: HCT-15
HL-60 = test system: HL-60
KM12 = test system: KM12
MOLT-4 = test system: MOLT-4
OVCAR-5 = test system: OVCAR-5
SF-295 = test system: SF-295
SF-539 = test system: SF-539
SR = test system: SR
SW-620 = test system: SW-620
U-251 = test system: U-251
UACC-257 = test system: UACC-257
UO-31 = test system: UO-31
SK-MEL-2 = test system: SK-MEL-2

Row | Compound | GI50 (CAKI-1) | GI50 (CCRF-CEM) | GI50 (HCC 2998) | GI50 (HCT-15) [µM] | GI50 (HL-60) | GI50 (KM12) | GI50 (MOLT-4) | GI50 (OVCAR-5) | GI50 (SF-295) | GI50 (SF-539) | GI50 (SR) | GI50 (SW-620) | GI50 (U-251) | GI50 (UACC-257) | GI50 (UO-31) | GI50 (SK-MEL-2)
1 | COc1ccc(C(=O)CC2=Nc3nnc(CCCCCCCc4nnc5n4C(=O)C(CC(=O)c4ccc(OC)cc4)=N5)n3C2=O)cc1 | > 100 µM (inactive) | > 100 µM (inactive) | > 100 µM (inactive) | > 100 | > 100 µM (inactive) | > 100 µM (inactive) | > 100 µM (inactive) | > 100 µM (inactive) | > 100 µM (inactive) | > 100 µM (inactive) | > 100 µM (inactive) | > 100 µM (inactive) | > 100 µM (inactive) | > 100 µM (inactive) | > 100 µM (inactive) | 
2 | CCOC(=O)C(=O)CC1=Nc2ccccc2SC(c2cccc(C)c2)C1 (configuration not stated) | 21.9 µM (inactive) | 20.6 µM (inactive) | 16.3 µM (inactive) | 18.2 |  | 16.2 µM (inactive) | 17.3 µM (inactive) | 16.8 µM (inactive) |  | 19 µM (inactive) | 22.2 µM (inactive) | 25.6 µM (inactive) | 17.1 µM (inactive) | 19 µM (inactive) | 15.4 µM (inactive) | 16.3 µM (inactive)
3 | O=C(O)c1ccc([C@@H]2C(=O)N(O)[C@@H]3C=CC[C@@H]32)cc1 | > 100 µM (inactive) | > 100 µM (inactive) | > 100 µM (inactive) | > 100 | > 100 µM (inactive) | > 100 µM (inactive) | > 100 µM (inactive) |  | > 100 µM (inactive) | > 100 µM (inactive) |  | > 100 µM (inactive) |  | > 100 µM (inactive) | > 100 µM (inactive) | > 100 µM (inactive)
4 | COc1cc(C2C(C(=O)Nc3ccc(Cl)c(Cl)c3)=C(C)NC(C)=C2C(=O)Nc2ccc(Cl)c(Cl)c2)ccc1O | 14 µM (inactive) | 3.26 µM (inactive) | 11.4 µM (inactive) |  | 4.38 µM (inactive) | 11.7 µM (inactive) | 4.31 µM (inactive) | 19.4 µM (inactive) | 18.4 µM (inactive) | 10.2 µM (inactive) |  | 12.3 µM (inactive) | 13.9 µM (inactive) | 13.8 µM (inactive) | 12 µM (inactive) | 8.17 µM (inactive)
5 | COc1cc2c(cc1OC)C(C#N)N(C(=O)c1ccccc1)C=C2OC(=O)c1ccccc1 (configuration not stated) |  | 36.6 µM (inactive) | 45.1 µM (inactive) | 32.1 | > 100 µM (inactive) | 34.4 µM (inactive) | 77.8 µM (inactive) | > 100 µM (inactive) | 22.5 µM (inactive) | 19.1 µM (inactive) | 61.5 µM (inactive) | 33 µM (inactive) | 24.7 µM (inactive) | 23.4 µM (inactive) | 20.4 µM (inactive) | 22.6 µM (inactive)
6 | COC1CC(OC)C(O)C(CO)O1 (configuration not stated) |  | > 100 µM (inactive) | > 100 µM (inactive) | > 100 | > 100 µM (inactive) | > 100 µM (inactive) | > 100 µM (inactive) | > 100 µM (inactive) | > 100 µM (inactive) | > 100 µM (inactive) | > 100 µM (inactive) | > 100 µM (inactive) | > 100 µM (inactive) | > 100 µM (inactive) | > 100 µM (inactive) | > 100 µM (inactive)
7 | C/C=C(/CCCCNCCCC)[Si](C)(C)C |  | 8.26 µM (inactive) | 5.66 µM (inactive) | 14.4 | 6.64 µM (inactive) | 14.5 µM (inactive) | 11.4 µM (inactive) | 14.4 µM (inactive) | 15.8 µM (inactive) | 14.9 µM (inactive) | 13.4 µM (inactive) | 16.6 µM (inactive) | 13.5 µM (inactive) | 15.2 µM (inactive) | 17.5 µM (inactive) | 18.7 µM (inactive)
8 | CC(C)(C)OC(=O)N[C@H]1CC(=O)c2ccccc2N(CC(=O)O)C1=O | > 100 µM (inactive) | > 100 µM (inactive) | > 100 µM (inactive) | > 100 | > 100 µM (inactive) | > 100 µM (inactive) | > 100 µM (inactive) |  | > 100 µM (inactive) | > 100 µM (inactive) |  | > 100 µM (inactive) |  | > 100 µM (inactive) | > 100 µM (inactive) | > 100 µM (inactive)
9 | COC(=O)/C(C#N)=C1\NN=NN1c1ccc(OC)cc1 | > 100 µM (inactive) | > 100 µM (inactive) | > 100 µM (inactive) | > 100 |  | > 100 µM (inactive) | > 100 µM (inactive) |  | > 100 µM (inactive) | > 100 µM (inactive) |  | > 100 µM (inactive) | > 100 µM (inactive) | > 100 µM (inactive) | > 100 µM (inactive) | 
10 | CC(=O)O[C@]12CCC[C@H]1C1(O)C(O)CCC[C@H]12 (some centres not stated) |  | > 100 µM (inactive) |  | > 100 | > 100 µM (inactive) | > 100 µM (inactive) | > 100 µM (inactive) |  | > 100 µM (inactive) |  | > 100 µM (inactive) | > 100 µM (inactive) | > 100 µM (inactive) | > 100 µM (inactive) | > 100 µM (inactive) | > 100 µM (inactive)
11 | COC(CN1C=C(Sc2ccccc2)CC1)OC | 41.4 µM (inactive) | 19.5 µM (inactive) | 33.9 µM (inactive) | 37.7 | 15.6 µM (inactive) | 23.8 µM (inactive) | 27.2 µM (inactive) | 49.2 µM (inactive) | 19.5 µM (inactive) | 26.4 µM (inactive) |  | 21.9 µM (inactive) |  | 34.8 µM (inactive) | 29.9 µM (inactive) | 19.4 µM (inactive)
12 | CC1CC(=O)C(C(O)CC2CC(=O)N(c3ccccc3)C(=O)C2)C(C)C1 (configuration not stated) | > 100 µM (inactive) | > 100 µM (inactive) | > 100 µM (inactive) |  | > 100 µM (inactive) | > 100 µM (inactive) | > 100 µM (inactive) | > 100 µM (inactive) | > 100 µM (inactive) | > 100 µM (inactive) | > 100 µM (inactive) | > 100 µM (inactive) | > 100 µM (inactive) | > 100 µM (inactive) | > 100 µM (inactive) | 
13 | c1ccc2c(c1)CCC/C2=N\OCC1CO1 (configuration not stated) | 36.1 µM (inactive) | 23.2 µM (inactive) | > 100 µM (inactive) | > 100 | 28.4 µM (inactive) | > 100 µM (inactive) | 49.3 µM (inactive) | > 100 µM (inactive) | 70.1 µM (inactive) | > 100 µM (inactive) |  | 92.9 µM (inactive) | > 100 µM (inactive) | > 100 µM (inactive) | 38.6 µM (inactive) | 61.2 µM (inactive)
14 | CCCCCCCCOCC(CO)OCCCCCCCC (configuration not stated) | 30.5 µM (inactive) | 22.5 µM (inactive) | 18.9 µM (inactive) | 15.9 | 19 µM (inactive) |  | 19.2 µM (inactive) | 17.9 µM (inactive) | 16.3 µM (inactive) |  | > 10 µM (inactive) | 19.8 µM (inactive) | 17.3 µM (inactive) | 21.3 µM (inactive) | 20 µM (inactive) | 
15 | COC(=O)C(Cc1cc(OC)c(OC)c(OC)c1)c1ccc(OC)cc1 (configuration not stated) | > 100 µM (inactive) | 88.5 µM (inactive) |  | > 100 | 95.5 µM (inactive) | > 100 µM (inactive) | 62.7 µM (inactive) | 44.7 µM (inactive) | > 100 µM (inactive) | > 100 µM (inactive) |  | > 100 µM (inactive) | > 100 µM (inactive) | > 100 µM (inactive) | > 100 µM (inactive) | 
